Measured values as given in US20180071317A1, “USE OF AGENTS THAT ALTER THE PERITUMORAL ENVIRONMENT FOR THE TREATMENT OF CANCER” (SERVICIO ANDALUZ DE SALUD, priority 2011, published 2018).

Experiments:
[1] = tested on: human primary fibroblasts (PHF); test: Marker expression (immunohistochemistry) in human primary fibroblasts with SP alone or with NK1 antagonists; type: cell-based; conditions: SP 1 μM + antagonist 1 μM; 48 h;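 also: primary human dermal fibroblasts, immunostained with rabbit polyclonal antibodies against each marker, value is percentage of stained cells among all cells counted in 20 fields at 400× per section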
Description: These PHF were obtained and purified from samples obtained from the dermis of the skin of healthy volunteers as described in De Bari et al (De Bari et al. 2001). Briefly, small pieces of skin dermis were digested in a solution of hyaluronidase (Sigma-Aldrich, USA) at a concentration of 1 mg/ml for 15 minutes at 37° C. and then treated with 6 mg/ml collagenase type IV (Invitrogen) for 2 hours at 37° C. Then, the cells were washed, resuspended in DMEM culture medium with high glucose (Dulbecco's Modified Eagle's Medium, Invitrogen) supplemented with 1% antibiotic-antimycotic (Invitrogen) and 1% pyruvate Sodium (Invitrogen), and seeded in culture dishes at a concentration of 10,000 cells per square centimeter. When the cells reached confluence, adherent cells were detached using 0.5% sterile trypsin (Invitrogen) and used between passages 3 and 9. For tests shown below, the PHF were plated in 24-well plates at a concentration of 25,000 cells per well.
After 48 hours of culture, cells were harvested and paraffin cell-blocks for immunohistochemical analysis were constructed, as previously explained in Example 1.
In immunohistochemical assays the expression of the following markers were studied: TGFα (SAB4502953), TGF1 (SAB4502954), TGFβ2 (SAB4502956), TGFβ3 (SAB4502957), SPARC (HPA002989), MMP-3 (HPA007875) MMP-7 (SAB4501894), MMP-9 (SAB4501896), MMP-11 (SAB4501898), MMP-13 (SAB4501900) and MMP-14 (SAB4501901) using specific antibodies against them. All antibodies used were rabbit polyclonal antibodies obtained from Sigma-Aldrich and were used at a concentration of 1/1000. All experiments were carried out sixfold.
On each of the six sections cell counts were performed in 20 high power fields (400×) through an Olympus microscope (model CX31) to assess the immunostaining. On each of the fields total cell number and number of cells displaying immunostaining were counted, being then the percentage of cells displaying said immunostaining.

[2] = tested on: fibroblasts (PHF) co-cultured with tumor cells of human breast carcinoma (MCF-7); test: Marker expression (IHC) in PHF co-cultured with MCF-7 tumor cells; type: cell-based; conditions: co-culture with MCF-7; SP 1 μM + antagonist 1 μM; 48 h;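 also: value is the percentage of fibroblasts positive for each marker, with fibroblasts cultured alone as reference, grown in fresh plasma from a healthy donor, six replicates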
Description: (§1) All cultures were maintained 48 hours, following which the same cells were included in paraffin blocks for subsequent analysis of the expression of different markers by immunohistochemistry (see Example 1). […] All experiments were carried out sixfold. Analyzed markers in fibroblast cells (stromal cells) were: TGF-α, TGF-β1, TGF-β2, TGF-β3, SPARC, MMP-3, MMP-7, MMP-9, MMP-11, MMP-13 and MMP-14.

[3] = tested on: fibroblasts (PHF) co-cultured with human choriocarcinoma tumor cells (AC-1M32); test: Marker expression (IHC) in PHF co-cultured with AC-1M32 tumor cells; type: cell-based; conditions: co-culture with AC-1M32; SP 1 μM + antagonist 1 μM; 48 h;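 also: Read-out is the percentage of PHF fibroblasts positive for each marker, with cells grown in fresh healthy-donor blood plasma, six replicates, reference being fibroblasts cultured alone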
Description: as §1

[4] = tested on: fibroblasts (PHF) co-cultivated with tumor cell carcinoma of urinary bladder (5637); test: Marker expression (IHC) in PHF co-cultured with 5637 tumor cells; type: cell-based, human; conditions: co-culture with 5637; SP 1 μM + antagonist 1 μM; 48 h
Description: as §1

[5] = tested on: fibroblasts (PHF) co-cultured with tumor cells in human prostate carcinoma (22Rv1); test: Marker expression (IHC) in PHF co-cultured with 22Rv1 tumor cells; type: cell-based; conditions: co-culture with 22Rv1; SP 1 μM + antagonist 1 μM; 48 h;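 also: cultures grown on fresh plasma from a healthy donor, each experiment run sixfold, values give the percentage of fibroblasts positive for the given marker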
Description: as §1

[6] = tested on: fibroblasts (PHF) co-cultured with human neuroblastoma tumor cells (KELLY); test: Marker expression (IHC) in PHF co-cultured with KELLY tumor cells; type: cell-based; conditions: PHF co-cultured with KELLY + SP + NK1 antagonist;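 also: Co-cultures grown on healthy-donor human blood plasma, run in six replicates, value is percentage of fibroblasts positive for each marker, compared with fibroblasts cultured alone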
Description: as §1

[7] = tested on: fibroblasts of tumors produced by human glioma tumor line (GAMG); test: Marker expression (IHC) in fibroblasts of tumor or peritumoral area, mouse model, GAMG; type: in vivo; conditions: GAMG tumors in mice, 30 mg/kg/day oral, 7 days
Description: In vitro tests conducted in Example 5 are now carried out in an experimental model in mice in vivo. […] Subsequently, the expression in fibroblasts tumoral and peritumoral area of molecular markers associated with progression and maintenance of tumors: TGF-α, TGF-β1, TGF-β2, TGF-β3, MMP-7, MMP-11, MMP-14 were analyzed by immunohistochemistry.
Were injected with 2×10^7 cells tumors (corresponding, in each case to each of the tumor types as specified in Table 9) in 200 of PBS subcutaneously μl. […] Mice were randomized into two groups when the tumors reached a volume of 75 mm^3 One group was treated with non-peptide receptor antagonists NK1 and the other with placebo 200μ1. […] Tumors and samples of non-neoplastic stromal areas remote from the tumor were halved, formalin fixed (4%) and then were included in paraffin blocks for analysis by immunohistochemistry.
The expression on fibroblast cells obtained in the animal model was analyzed by immunohistochemistry, of the above markers: TGF-α, TGF-β1, TGF-β2, TGF-β3, MMP-7, MMP-1 1, MMP-14MP-14. Tables 32 to 35 depict the type of label used and the average percentage of fibroblasts present in non-tumor areas, tumor and peritumoral (±SD) which were expressing the marker shown in each of the tumor types developed from of the different cell lines used. This process was realized in mice treated with non-peptide antagonists of NK1 receptor and in untreated animals (control).

C[C@@H](O[C@H]1OCCN(Cc2n[nH]c(=O)[nH]2)[C@H]1c1ccc(F)cc1)c1cc(C(F)(F)F)cc(C(F)(F)F)c1 [Aprepitant]
0%: PHF cells expressing MMP-3 [1] | PHF cells expressing MMP-7 [1] | PHF cells expressing MMP-9 [1] | PHF cells expressing MMP-11 [1] | PHF cells expressing MMP-13 [1] | PHF cells expressing MMP-14 [1] | PHF cells expressing SPARC [1] | PHF cells expressing TGFα [1] | PHF cells expressing TGFβ 1 [1] | PHF cells expressing TGFβ 2 [1] | PHF cells expressing TGFβ 3 [1] | PHF cells expressing MMP-3 [2] | PHF cells expressing MMP-7 [2] | PHF cells expressing MMP-9 [2] | PHF cells expressing MMP-11 [2] | PHF cells expressing MMP-13 [2] | PHF cells expressing MMP-14 [2] | PHF cells expressing SPARC [2] | PHF cells expressing TGF-α [2] | PHF cells expressing TGF-β1 [2] | PHF cells expressing TGF-β2 [2] | PHF cells expressing TGF-β3 [2] | PHF cells expressing MMP-3 [3] | PHF cells expressing MMP-7 [3] | PHF cells expressing MMP-9 [3] | PHF cells expressing MMP-11 [3] | PHF cells expressing MMP-13 [3] | PHF cells expressing MMP-14 [3] | PHF cells expressing SPARC [3] | PHF cells expressing TGF-α [3] | PHF cells expressing TGF-β1 [3] | PHF cells expressing TGF-β2 [3] | PHF cells expressing TGF-β3 [3] | PHF cells expressing MMP-3 [4] | PHF cells expressing MMP-7 [4] | PHF cells expressing MMP-9 [4] | PHF cells expressing MMP-11 [4] | PHF cells expressing MMP-13 [4] | PHF cells expressing MMP-14 [4] | PHF cells expressing SPARC [4] | PHF cells expressing TGF-α [4] | PHF cells expressing TGF-β1 [4] | PHF cells expressing TGF-β2 [4] | PHF cells expressing TGF-β3 [4] | PHF cells expressing MMP-3 [5] | PHF cells expressing MMP-7 [5] | PHF cells expressing MMP-9 [5] | PHF cells expressing MMP-11 [5] | PHF cells expressing MMP-13 [5] | PHF cells expressing MMP-14 [5] | PHF cells expressing SPARC [5] | PHF cells expressing TGF-α [5] | PHF cells expressing TGF-β1 [5] | PHF cells expressing TGF-β2 [5] | PHF cells expressing TGF-β3 [5] | cells expressing MMP-3 [6] | cells expressing MMP-7 [6] | cells expressing MMP-9 [6] | cells expressing MMP-11 [6] | cells expressing MMP-13 [6] | cells expressing MMP-14 [6] | cells expressing SPARC [6] | cells expressing TGF-α [6] | cells expressing TGF-β1 [6] | cells expressing TGF-β2 [6] | cells expressing TGF-β3 [6] | fibroblasts expressing MMP-7 [7] | fibroblasts expressing MMP-11 [7] | fibroblasts expressing MMP-14 [7] | fibroblasts expressing TGF-α [7] | fibroblasts expressing TGF-β 1 [7] | fibroblasts expressing TGF-β 2 [7] | fibroblasts expressing TGF-β 3 [7]
